# Assay results reported in patent US20250099491A1, “PREVENTION OR TREATMENT OF CARDIOVASCULAR DISEASES WITH HIGH PENETRATION PRODRUGS OF ASPIRIN AND OTHER NSAIDS” (Techfields Inc., priority 2022, published 2025).
# Tested on: myocardial infarction in minipigs
# Assay: Example 20: myocardial infarction efficacy study in minipigs (circumflex coronary artery thrombosis)
# Format: in vivo, minipig
# Conditions: twice a day; for infarct volume (myocardial): 28 days after MCA thrombosis
# Method: Total 24 male minipigs were used for this study. […] The minipigs were already quarantined and acclimated. Before animal being transferred from holding colony, a physical examination was performed and the acceptability of the animals for the study was evaluated by veterinary. […] [table] […] Under anesthesia, thoracotomy was carried out and the circumflex coronary artery of the heart was exposed. The circumflex coronary artery thrombosis was induced by photochemical reaction. […] Photoirradiation was continued for a 30 min. […] After cutting the femoral artery, thoracotomy was carried out and the heart was removed. […] TTC regent for 5 min. After staining with TTC reagent, the photograph of the heart 5 blocks was taken. All blocks were immersed in 10% formalin neutral buffer solution. The 2nd block appeared large necrotic area was cut sections (thickness: 7-8 μm). Slice was stained with H & E reagent. […] The infarct lesions were defined as a necrotic portion of TTC stained blocks. […] The histopathological alteration (necrosis, inflammation, granulation, etc.) of myocardial infarction was examined using H & E stained slides.
# [1] = high dose 30 mg/kg/time transdermal
# [2] = low dose 15 mg/kg/time transdermal
structure (smiles),measurement,setting,value
CCN(CC)CCOC(=O)c1ccccc1OC(C)=O.Cl [Compound-1],degeneration of myocardium and myocardial necrosis (histopathology),[1],slight
same,infarct volume (myocardial),[1],138 mm^3
same,degeneration of myocardium and myocardial necrosis (histopathology),[2],slight
same,infarct volume (myocardial),[2],177 mm^3
